Holding throughout (experiment): NADH fluorescence
Holding throughout (assay type): biochemical
Conditions in all cases: 1 mM NAD+, 50 mM Tris pH 8.0, 150 mM NaCl, 0.1% Triton X-100

For test [1], the target named is T1, Hfd1p^CΔ25 (MBP-Hfd1^CΔ25) (Saccharomyces cerevisiae, UniProt Q04458).
T1 sequence (Q04458 1-507): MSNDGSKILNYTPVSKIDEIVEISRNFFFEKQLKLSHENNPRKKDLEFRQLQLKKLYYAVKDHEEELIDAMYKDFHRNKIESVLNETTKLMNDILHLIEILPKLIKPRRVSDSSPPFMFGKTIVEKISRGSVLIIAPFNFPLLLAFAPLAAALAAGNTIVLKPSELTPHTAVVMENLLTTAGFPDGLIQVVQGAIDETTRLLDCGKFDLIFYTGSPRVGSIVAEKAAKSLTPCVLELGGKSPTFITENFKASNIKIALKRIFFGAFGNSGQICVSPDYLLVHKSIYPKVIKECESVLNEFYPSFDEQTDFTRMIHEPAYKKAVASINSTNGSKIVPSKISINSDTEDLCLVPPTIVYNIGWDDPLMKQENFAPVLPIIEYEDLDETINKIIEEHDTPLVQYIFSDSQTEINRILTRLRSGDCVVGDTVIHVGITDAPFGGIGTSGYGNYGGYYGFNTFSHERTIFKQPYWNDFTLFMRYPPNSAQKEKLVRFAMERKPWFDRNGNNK

The target in test [2] is T2, ALDH3A1 (Homo sapiens, UniProt P30838).
T2 sequence (P30838 1-453): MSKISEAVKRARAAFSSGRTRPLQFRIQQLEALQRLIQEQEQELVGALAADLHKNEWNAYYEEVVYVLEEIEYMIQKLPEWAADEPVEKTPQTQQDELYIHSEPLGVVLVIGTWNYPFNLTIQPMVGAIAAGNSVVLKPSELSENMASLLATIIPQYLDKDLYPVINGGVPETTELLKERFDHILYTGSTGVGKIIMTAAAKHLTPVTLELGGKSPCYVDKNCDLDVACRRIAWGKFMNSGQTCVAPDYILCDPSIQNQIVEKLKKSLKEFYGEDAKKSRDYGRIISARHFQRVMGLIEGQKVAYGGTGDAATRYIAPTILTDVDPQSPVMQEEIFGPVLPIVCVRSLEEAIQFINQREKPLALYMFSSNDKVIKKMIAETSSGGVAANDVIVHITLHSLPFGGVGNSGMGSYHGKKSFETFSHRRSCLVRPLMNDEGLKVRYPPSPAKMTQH

For test [3], the target named is ALDH3A2^CΔ25 (FALDH) (Homo sapiens, UniProt P51648).
ALDH3A2^CΔ25 (FALDH), sequence (P51648 1-460, stated change not applied): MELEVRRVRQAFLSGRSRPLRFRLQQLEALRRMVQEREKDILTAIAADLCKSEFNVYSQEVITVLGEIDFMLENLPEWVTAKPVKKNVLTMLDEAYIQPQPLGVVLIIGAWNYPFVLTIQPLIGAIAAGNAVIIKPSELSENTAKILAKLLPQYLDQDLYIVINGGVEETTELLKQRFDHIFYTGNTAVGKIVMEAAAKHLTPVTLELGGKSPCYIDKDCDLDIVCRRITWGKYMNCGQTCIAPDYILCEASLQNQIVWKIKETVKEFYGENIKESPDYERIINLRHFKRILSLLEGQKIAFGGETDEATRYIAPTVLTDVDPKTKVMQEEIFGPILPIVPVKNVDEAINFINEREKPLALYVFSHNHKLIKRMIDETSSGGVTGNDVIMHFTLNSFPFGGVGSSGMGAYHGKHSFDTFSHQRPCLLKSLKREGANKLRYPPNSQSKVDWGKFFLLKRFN

Take `O=Cc1ccc(O)cc1` [4-HBz]: the KM entry in test [1] was “WT Hfd1p catalyzes NAD^+-dependent dehydrogenation of 4-HBz”; in test [2] it was “Hfd1p and ALDH3A1 show a preference for 4-HBz”.
As for `CCCCCCCCCCCCCCCC=O` [hexadecanal], the KM entry is “we observed Hfd1p activity in vitro with hexadecanal, similar to that observed with 4-HBz” in test [1] and “ALDH3A2 shows a strong substrate preference for hexadecanal over 4-HBz” in test [3].

(Values after PMC5101133 (Nature biotechnology, 2016).)
